# Experimental data: patent US20140309192A1, “MODULATORS OF THE G PROTEIN-COUPLED MAS RECEPTOR AND THE TREATMENT OF DISORDERS RELATED THERETO” (ARENA PHARMACEUTICALS, INC., priority 2011, published 2014)
# Entries after “also recorded” stand apart in the source; their conditions may differ.
# Key:
# control HEK293 cells = assay: HTRF IP1 assay in control HEK293 cells; type: cell-based; conditions: IP assay
# Text: Human and rat Mas receptors were either transiently or stably expressed in HEK293 cells. For transient transfections, human or rat Mas in pHM6 vector were transfected into HEK293 cells using Lipofectamine® (Invitrogen #18324-012). HEK293 cells transfected with empty pHM6 vector were used as a control. For generation of stable cell lines, cDNA expression plasmids encoding human or rat Mas genes and the neo^r gene were transfected into HEK293 cells (ATCC# CRL-1573) using Lipofectamine® (Invitrogen) according to the manufacturer's instructions. Stable receptor expressing pools were then generated over 3 weeks by standard techniques in the presence of 500 μg/mL Geneticin® (Gibco). Individual receptor stable pools were dilution cloned using standard techniques and clones were comparatively evaluated in inositol phosphate accumulation assays. Preferred clones were banked and cultured as needed. HEK293 cells were used as controls. The 384 well IP-One HTRF® Assay (Cisbio #62P1APEJ) was performed as described by the manufacturer's protocol. Cells were plated in at 100,000 cells per well in 15 μL DMEM (Gibco #11960) and incubated in a CO2 incubator at 37° C. for 2 h. […] IP1 levels in each well were calculated according to the standard curves on each plate. […]
# Male Sprague-Dawley rats = assay: Coronary artery ligation model, LV area at risk and infarct size (Example 5.6); type: in vivo, rat; conditions: 10 mg/kg i.v. bolus 10 min before ligation or 3 min before reperfusion; 30 min ischemia, 2 h reperfusion
# [1] = test system: isolated perfused rat hearts; assay: Ex vivo coronary flow, Langendorff perfused isolated rat hearts; conditions: for decrease in coronary flow induced by AR234960 (1 μM) after pretreatment: pretreatment 10 min: AR244555 5 μM or U-73122 0.5 μM
# Experimental: Coronary flow was measured in male Mas^−/− and Mas^+/+ mice, and in male Sprague-Dawley rats using Langendorff perfused isolated hearts. Freshly isolated hearts were placed on a Langendorff apparatus (Harvard Apparatus) and perfused at a constant pressure of 80 mmHg with a modified Krebs-Henseleit buffer solution (Sigma K3753) and aerated with 95% oxygen and 5% carbon dioxide, pH 7.35-7.4. The temperature was maintained at 37° C. by surrounding the heart with a water-heated glassware chamber. Coronary flow was measured using a flow measurement system (Harvard Apparatus) which included the transit time flow meter and a flow probe built into an adaptor block located at the perfusate inflow port. Data were recorded continuously using an ISOHEART data acquisition system (Harvard Apparatus). After a 20-min equilibration period, Mas compounds were added to the perfusion buffer reservoir at the desired concentration (agonist AR234960 at 1 μM, or inverse agonist AR244555 at 5 μM) and coronary flow was recorded for 10 min
# To determine the role of the Mas-Gq-PLC pathway in regulating coronary flow, the Mas inverse agonist AR244555 (5 μM) or the PLC inhibitor U-73122 (0.5 μM) was added to the perfusion buffer for 10 min and then the agonist AR234960 (1 μM) was added to the perfusion buffer. Coronary flow was recorded for another 10 min Changes in coronary flow induced by AR234960 were calculated as percentage of the coronary flow at 10 min following AR234960 treatment, relative to the coronary flow measured immediately prior to addition of AR234960. This protocol allowed for measurement of agonist mediated vasoconstrictor activity, and accounted for changes in baseline coronary flow due to inverse agonist treatment alone.
# To determine whether Mas agonist-induced changes in coronary flow were endothelium-dependent, the responses in Langendorff perfused hearts were measured after chemical removal of endothelium with sodium deoxycholate. After a 20-min equilibration period, sodium deoxycholate was added to the perfusion buffer at 0.2 mg/mL for 3 min and then washed out for 10 min Mas compounds were added and coronary flow was recorded for 10 min Adenosine (1 μM), a coronary vasodilator that targets the endothelium, was used as a control to verify effective removal of endothelium.
# [2] = test system: isolated perfused rat hearts; assay: Global ischemia-reperfusion in Langendorff perfused rat hearts (coronary flow, arrhythmias)
# Experimental: For ischemia-reperfusion experiments, Langendorff perfused rat hearts were equilibrated for 20 min and then baseline coronary flow was recorded for 10 min Thereafter, all hearts were subjected to 30 min of global ischemia by stopping perfusate flow, followed by 30 min of reperfusion with either vehicle (0.01% DMSO), Mas agonist AR234960 (1 μM) or Mas inverse agonist AR244555 (5 μM) added to the perfusion buffer. Electrocardiography was also continuously recorded during the observation period through electrodes attached directly to the surface of the ventricles to detect cardiac arrhythmias during reperfusion.
# human Mas receptor = molecular target: T1, human Mas receptor (Homo sapiens, UniProt P04201); assay: HTRF IP1 assay, HEK293 cells expressing human Mas receptor; type: cell-based
# T1 construct: expressed in transfected cells; host or cells: HEK293 (ATCC CRL-1573)
# T1 sequence (P04201 1-325): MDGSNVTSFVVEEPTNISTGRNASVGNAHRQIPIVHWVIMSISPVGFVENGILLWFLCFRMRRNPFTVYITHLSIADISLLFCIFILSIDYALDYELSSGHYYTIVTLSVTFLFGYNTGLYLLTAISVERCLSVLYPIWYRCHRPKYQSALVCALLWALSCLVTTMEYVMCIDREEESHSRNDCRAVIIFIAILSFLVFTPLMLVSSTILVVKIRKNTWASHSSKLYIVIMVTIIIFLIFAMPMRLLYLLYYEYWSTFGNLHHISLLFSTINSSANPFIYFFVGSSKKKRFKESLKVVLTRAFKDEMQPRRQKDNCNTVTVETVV
# Text: (§1) Human and rat Mas receptors were either transiently or stably expressed in HEK293 cells. For transient transfections, human or rat Mas in pHM6 vector were transfected into HEK293 cells using Lipofectamine® (Invitrogen #18324-012). HEK293 cells transfected with empty pHM6 vector were used as a control. For generation of stable cell lines, cDNA expression plasmids encoding human or rat Mas genes and the neo^r gene were transfected into HEK293 cells (ATCC# CRL-1573) using Lipofectamine® (Invitrogen) according to the manufacturer's instructions. Stable receptor expressing pools were then generated over 3 weeks by standard techniques in the presence of 500 μg/mL Geneticin® (Gibco). Individual receptor stable pools were dilution cloned using standard techniques and clones were comparatively evaluated in inositol phosphate accumulation assays. Preferred clones were banked and cultured as needed. HEK293 cells were used as controls. The 384 well IP-One HTRF® Assay (Cisbio #62P1APEJ) was performed as described by the manufacturer's protocol. Cells were plated in at 100,000 cells per well in 15 μL DMEM (Gibco #11960) and incubated in a CO2 incubator at 37° C. for 2 h. Five μL of compounds diluted in 2× stimulation buffer plus 0.4% BSA (Sigma (#A3059) were added to each well and serial diluted IP1 standards (Cisbio #62IP1CDA) were also added to corresponding wells at this step. After the cells were incubated for 4 h in a CO2 incubator at 37° C., d2-labeled IP1 and cryptate-labeled anti-IP1 monoclonal antibody diluted in lysis buffer were added sequentially in 10 μL per well and the assay plates were kept in the dark at room temperature overnight. Ratiometric measurements of fluorescence emission at 665 nm and 620 nm were obtained using a Pherastar fluorometer (BMG Labtech). IP1 levels in each well were calculated according to the standard curves on each plate. IC50 values were obtained by fitting data to a nonlinear curve-fitting program (GraphPad Software, Inc., La Jolla Calif.).
# rat Mas receptor = molecular target: T2, rat Mas receptor (Rattus norvegicus, UniProt P12526); assay: HTRF IP1 assay, HEK293 cells expressing rat Mas receptor; type: cell-based
# T2 construct: expressed in transfected cells; host or cells: HEK293 (ATCC CRL-1573)
# T2 sequence (P12526 1-324): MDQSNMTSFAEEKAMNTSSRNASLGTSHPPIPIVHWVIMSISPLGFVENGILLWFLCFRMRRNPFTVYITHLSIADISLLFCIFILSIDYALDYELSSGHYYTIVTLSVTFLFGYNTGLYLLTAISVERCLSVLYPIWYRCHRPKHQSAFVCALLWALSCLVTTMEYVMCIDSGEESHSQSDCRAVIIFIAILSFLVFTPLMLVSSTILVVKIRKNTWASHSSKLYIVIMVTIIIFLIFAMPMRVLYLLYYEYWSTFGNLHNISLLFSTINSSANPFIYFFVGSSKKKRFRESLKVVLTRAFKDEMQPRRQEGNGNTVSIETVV
# Text: as §1
# Male Sprague Dawley rats = assay: Carrageenan-induced inflammatory paw swelling model; type: in vivo, rat; conditions: i.p. 30 minutes prior to λ-carrageenan; AR305352 1, 3 and 10 mg/kg; dexamethasone 2 mg/kg; 1, 2, 3, 6 and 24 hours
# Experimental: In a blinded and randomized fashion, rats were intraperitoneally dosed with a Mas receptor inverse agonist (AR305352, N-(4-chloro-2-(4-(3,3,3-trifluoropropyl)piperazin-1-yl)phenyl)-2,6-difluorobenzamide, see Zhang, T., et. al., Am J Physiol Heart Circ Physiol 302:H299-H311, (2012)) at 1, 3 and 10 mg/kg, 20% HPCD or 2 mg/kg of dexamethasone, 30 minutes prior to injection of 100 μl of saline or 100 μg of λ-carrageenan into the left or right foot pad of anesthetized animals. The difference in footpad width was measured using a caliper at 1, 2, 3, 6 and 24 hours post-injection.
# Mas receptor = conditions: Dong, et al., Cell 106:619-632 (2001); cited from earlier work
molecule,measurement,setting,value
"C=CCCN1CCC2(CC1)CN(C(=O)c1c(F)cccc1F)c1ccc(Cl)cc12 [AR244555, 1′-(but-3-enyl)-1,2-dihydro-5-chloro-1-(2,6-difluoro-benzoyl)-spiro[3H-indole-3,4′-piperidine]]",effects in control HEK293 cells,control HEK293 cells,There were detected effects
same,infarct size (percentage of the area at risk) vs vehicle,Male Sprague-Dawley rats,reduced infarct size by about half; also recorded: cardioprotective
same,coronary flow in isolated perfused rat hearts,"[1]; AR234960 1 μM, AR244555 5 μM, 10 min",modest but significant increase; also recorded: significantly increased
same,decrease in coronary flow induced by AR234960 (1 μM) after pretreatment,[1],prevented the decrease
same,arrhythmias during reperfusion,"[2]; 5 μM, six hearts",no arrhythmias were observed
same,coronary flow during reperfusion compared to vehicle treated hearts,"[2]; 30 min global ischemia, 30 min reperfusion, AR234960 1 μM, AR244555 5 μM in perfusate during reperfusion",significantly elevated coronary flow
same,IC50,"human Mas receptor; IP assay, HEK293 cells stably expressing human Mas, 4 h, means ± SEM, read-out: Human IC50",186 ± 11 nM
same,"ligand activity in IP assay, human Mas","human Mas receptor; Table C, line under Human IC50",(inverse agonist)
same,IC50,"rat Mas receptor; IP assay, HEK293 cells stably expressing rat Mas, 4 h, means ± SEM, read-out: Rat IC50",348 ± 67 nM
same,"ligand activity in IP assay, rat Mas","rat Mas receptor; Table C, line under Rat IC50",(inverse agonist)
"O=C(Nc1ccc(Cl)cc1N1CCN(CCC(F)(F)F)CC1)c1c(F)cccc1F [AR305352, N-(4-chloro-2-(4-(3,3,3-trifluoropropyl)piperazin-1-yl)phenyl)-2,6-difluorobenzamide]",foot-pad inflammation / paw swelling,Male Sprague Dawley rats,suppress foot-pad inflammation in a dose-dependent manner
"COc1ccc2c(c1)CC[C@@H]1[C@@H]2CC[C@]2(C)[C@@H](NCCCCCCN3C(=O)C=CC3=O)CC[C@@H]12 [Compound U-73122, 1-(6-((8R,9S,13S,14S,17S)-3-methoxy-13-methyl-7,8,9,11,12,13,14,15,16,17-decahydro-6H-cyclopenta[a]phenanthren-17-ylamino)hexyl)-1H-pyrrole-2,5-dione]",decrease in coronary flow induced by AR234960 (1 μM) after pretreatment,[1],blocked the decrease; also recorded: prevented the decrease
Nc1ncnc2c1ncn2[C@@H]1O[C@H](CO)[C@@H](O)[C@H]1O [adenosine],compound-mediated change in coronary flow in endothelium denuded hearts,"[1]; after sodium deoxycholate, AR234960 1 μM, adenosine 1 μM",abolished
NPFF,EC50,Mas receptor,~400 nM
